Laboratory results reported in US20090069324A1, “CHEMICAL INHIBITORS OF BFL-1 AND RELATED METHODS” (The Burnham Institute, priority 2007, published 2009).

What was measured:
Bfl-1 [1] = molecular target: T1, Bfl-1 (Homo sapiens, UniProt Q16548); assay: Bfl-1 fluorescence polarization assay (FPA/FP), competition with FITC-Bid BH3 peptide; assay type: binding
T1 construct: lacking their C-terminal transmembrane domains (approximately last 20 amino-acids); made in house; host or cells: XL-1 Blue cells (E. coli), pGEX 4T-1
T1 sequence (Q16548 1-155 limits assumed): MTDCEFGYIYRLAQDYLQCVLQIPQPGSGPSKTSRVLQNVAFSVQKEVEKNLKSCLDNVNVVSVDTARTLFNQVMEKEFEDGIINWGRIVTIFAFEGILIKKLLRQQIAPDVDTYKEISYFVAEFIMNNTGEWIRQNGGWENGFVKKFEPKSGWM
Description: Fluorescence polarization assays (FPA). To determine the binding affinity of anti-apoptotic Bcl-2 polypeptides to FITC-conjugated Bid BH3 peptide, fluorescence polarization assays (FPAs) were performed according to published procedures (Zhai et al., Biochem. J. 376:229-236 (2003)). […] Fluorescence polarization was measured after 10 min using an Analyst™ AD Assay Detection System (LJL Biosystem, Sunnyvale, Calif.) in phosphate-buffered saline (PBS) (pH 7.4). The IC50 determinations were performed using GraphPad Prism software (GraphPad, Inc., San Diego, Calif.).
Competition assays. Using the same procedure outlined above, 100 nM of GST-Bfl-1 protein were incubated with the compounds at 50 μM concentration for 30 min. Then, 5 nM of FITC-Bid BH3 peptide was added. Fluorescence polarization was measured after 10 min. […]

Bfl-1 [2] = molecular target: T1, Bfl-1; assay: Bfl-1 TR-FRET assay (FITC-Bid, Tb-anti-GST antibody); assay type: binding
Description: TR-FRET assay. For confirmation of FPA results, a TR-FRET assay utilizing terbium- (Tb-) labeled anti-GST antibody (Th-Ab) was developed. […] The reaction mixture was preincubated for 1 h, and TR-fluorescence (TRF) was measured on an M5 plate reader (Molecular Devices) using excitation at 340 nm and emission at […]. The measurements were averaged from 5 readings during 1 ms after an initial delay 0.1 ms. TR-FRET signal was calculated as the ratio of TR-Fluorescence at 520 nm to TR-Fluorescence at […].
For Bfl-1 TR-FRET assays, Bfl-1 protein and FITC-Bid peptide (FITC-Ahx-[…]) (SEQ ID NO: 1) were utilized. Terbium-anti-GST antibody (Tb-anti-GST Ab) was obtained from Invitrogen (San Diego Calif.). The assay buffer contained 25 mM Bis-Tris, pH 7.0, 1 mM TCEP, and 0.005% Tween 20. The Tb-Ab buffer contained 2.5 nM Tb-anti-GST antibody in assay buffer. The Bfl-1/Th-Ab working solution contained 5 nM Bfl-1 in Th-Ab assay buffer. The solution was prepared fresh and kept on ice prior to use. The FITC-Bid working solution contained 5.6 nM FITC-Bid in assay buffer.
For the Bfl-1 TR-FRET dose-response screening protocol, dose-response curves contained 10 concentrations of compounds obtained using 2-fold serial dilution. Compounds were serially diluted in 100% DMSO, and then diluted with water to 10% final DMSO concentration. A 4 μl aliquot of compounds in 10% DMSO was transferred into columns 3-22 of Greiner 384-well white small-volume plates. Columns 1-2 and 23-24 contained 4 μL of 10% DMSO.
Columns 1-2 were reserved for positive controls, and 8 μL of Th-Ab buffer was added using a WellMate bulk dispenser (Matrix). An aliquot of 8 μL of Bfl-1/Th-Ab working solution was added to columns 3-24 of Greiner 384 well white plates using a WellMate bulk dispenser (Matrix). Columns 23-24 represented negative control wells. Plates were incubated for 1 h at 4° C. An 8 μL aliquot of freshly prepared FITC-Bid working solution was added to the whole plate using WellMate bulk dispenser (Matrix). Plates were incubated for 4 h at room temperature protected from direct light. Fluorescence was measured on the M5 plate reader (excitation: 340 nm, emission: 490 and 520 nm, cutoff: 475 and 515 nm, respectively) in Time Resolved (TR) mode with signal integrated for 1 ms after initial delay of 0.1 ms. TR-FRET signal was calculated as the ratio of TR-Fluorescence at 520 nm to TR-Fluorescence at 490 nm. Data analysis was performed using a sigmoidal dose-response equation through non-linear regression.

[3] = Tables 3-5, read-out: Bfl-1 FP IC50
[4] = Tables 3-5, read-out: Bfl-1 TR FRET IC50

Structure (SMILES)	IC50 (Bfl-1 [1]; [3])	IC50 (Bfl-1 [2]; [4])	other results
O=C1C(Cl)=C(N2CCOCC2)C(=O)N1c1ccc(Cl)c(Cl)c1 [MLS-0067124]	1410 nM		IC50 (Bfl-1 [1]; text b265, read-out: IC50 in the FP assay): 1400 nM; IC50 (Bfl-1 [2]; text b265, read-out: IC50 in the TR-FRET assay): 1140 nM
O=C1C(Cl)=C(N2CCCC2)C(=O)N1c1ccc(Cl)c(Cl)c1 [MLS-0067126]			Bfl-1 FP IC50 (uM) (Bfl-1 [1]; Tables 3-5): no fit; Bfl-1 TR FRET IC50 (uM) (Bfl-1 [2]; Tables 3-5): no fit
COCCNC1=C(Cl)C(=O)N(c2ccc(Cl)c(Cl)c2)C1=O [MLS-0067127]	12600 nM	4960 nM	
O=C1C(Cl)=C(Nc2ccccc2)C(=O)N1c1ccc(Cl)c(Cl)c1 [MLS-0067128]			Bfl-1 FP IC50 (uM) (Bfl-1 [1]; Tables 3-5): no fit; Bfl-1 TR FRET IC50 (uM) (Bfl-1 [2]; Tables 3-5): no fit
CN1CCN(C2=C(Cl)C(=O)N(c3cc(Cl)cc(Cl)c3)C2=O)CC1 [MLS-0090828]	2440 nM	1660 nM	
CN1CCN(C2=C(Cl)C(=O)N(c3ccc(Cl)cc3Cl)C2=O)CC1 [MLS-0090829]	2620 nM	1360 nM	
CN1CCN(C2=C(Cl)C(=O)N(c3c(Cl)cccc3Cl)C2=O)CC1 [MLS-0090830]	13700 nM	3720 nM	
CN1CCN(C2=C(Cl)C(=O)N(c3cccc(Cl)c3Cl)C2=O)CC1 [MLS-0090831]	8740 nM	2560 nM	
Cc1ccc(Cl)c(N2C(=O)C(Cl)=C(N3CCN(C)CC3)C2=O)c1Cl [MLS-0090832]	23900 nM	11100 nM	
CN1CCN(C2=C(Cl)C(=O)N(c3ccccc3Cl)C2=O)CC1 [MLS-0090833]	2160 nM	1450 nM	
CN1CCN(C2=C(Cl)C(=O)N(c3cccc(Cl)c3)C2=O)CC1 [MLS-0090834]	2150 nM	1170 nM	
C[C@@H]1CN(C2=C(Cl)C(=O)N(c3ccc(Cl)c(Cl)c3)C2=O)CCN1 [MLS-0090857]	1160 nM	1030 nM	
C[C@H]1CN(C2=C(Cl)C(=O)N(c3ccc(Cl)c(Cl)c3)C2=O)CCN1 [MLS-0090858]	1320 nM	1250 nM	
O=C1C(Cl)=C(N2CCN(C/C=C/c3ccccc3)CC2)C(=O)N1c1ccc(Cl)c(Cl)c1 [MLS-0090859]	590 nM	730 nM	
CCN1CCN(C2=C(Cl)C(=O)N(c3ccc(Cl)c(Cl)c3)C2=O)CC1 [MLS-0090860]	1670 nM	970 nM	
O=C1C(Cl)=C(N2CCN(Cc3ccc4c(c3)OCO4)CC2)C(=O)N1c1ccc(Cl)c(Cl)c1 [MLS-0090865]	4070 nM	2140 nM	
O=C1C(Cl)=C(N2CCN(Cc3ccccc3)CC2)C(=O)N1c1ccc(Cl)c(Cl)c1 [MLS-0090866]	1620 nM	1640 nM	
O=C1C(Cl)=C(N2CCN(c3ncccn3)CC2)C(=O)N1c1ccc(Cl)c(Cl)c1 [MLS-0090868]	1900 nM	2460 nM	
O=C1C(Cl)=C(N2CCN(CCO)CC2)C(=O)N1c1ccc(Cl)c(Cl)c1 [MLS-0090874]	560 nM	590 nM	
CC1C(=O)NCCN1C1=C(Cl)C(=O)N(c2ccc(Cl)c(Cl)c2)C1=O (centres unmarked) [MLS-0090884]	5630 nM	2030 nM	
